Reference: patent publication US20250136617A1 (The Regents of the University of Colorado, A Body Corporate, priority 2022, published 2025)
Where two headings read alike, the source gives them in different places.

How the values were obtained:
Format in all cases: cell-based
[1] = test system: CEM-CCRF human lymphoblast cells; assay: Transwell migration assay in CEM-CCRF lymphoblasts
Protocol: Thus, to confirm CXCR4 functional activity, UCUF-728 was evaluated in a 96 w transwell migration assay in CEM human lymphoblast cells.
CEM-CCRF (ATCC CCL-119) were suspended in RPMI 1640 (Corning; 10-040-CV) at 5.0×10^5 cells/mL and allowed to incubate in cell culture incubator at 37° C. with 5% CO2 for one hour. […] Plates were reassembled and placed in a cell culture incubator at 37° C. with 5% CO2 for three hours. After incubation, Multi-Screen plate was disassembled and 100 μl of solution was collected from compound receiver tray and transferred to 96 well luminescent plate (Thermo Scientific; 265302) and an equal volume of ATPLite Istep luminescence reagent (Perkin Elmer, Waltham, MA; 6016731) was added to each well. Luminescence was measured using the CLARIOstar Plus (BMG LABTECH Inc., Cary, NC).

CXCR4 [2] = biological target: T1, CXCR4 (Homo sapiens, UniProt P61073); assay: β-arrestin recruitment, 384-well, Tango CXCR4-bla U2OS cells, normalized to SDF-1α; parameters: host or cells: U2OS; conditions: for Emax: U2OS, read-out: TANGO β-arrestin Emax (%)
Protocol: Tango™ CXCR4-bla U2OS Cells (Invitrogen; K1779) were used for (β-arrestin recruitment assays and maintained as a monolayer culture in McCoy's 5a (Corning; 10-050-CV) supplemented with 10% dialyzed Fetal Bovine Serum (Gibco; 26400-044), 0.1 mM MEM Non-essential amino acids solution, 25 mM HEPES solution (Corning; 25-060-CI), 1 mM Sodium Pyruvate (Gibco; 11360-070), 200 μg/mL Zeocin selection reagent (Gibco; R25001), 50 μg/mL Hygromycin B (Gibco, 10687010), and 100 μg/mL Geneticin (G418 Sulfate) (Gibco, 10131035). U2OS cells were subcultured twice weekly by 0.05% Trypsin-EDTA treatment (Corning; 25-051-CI) and passaged to continue exponential growth phase for cell signaling assays. All cell cultures were maintained in cell culture incubators at 37° C. with 5% CO2. CHO-K1 CXCR4 cells (DiscoverX, Fremont, CA, USA) were used for cAMP inhibition assays and maintained as a monolayer culture in DMEM/F12 (Corning; 10-091-CV) supplemented with 10% Fetal Bovine Serum (Corning; 35-011-CV) and 100IU penicillin, […] streptomycin sulfate (Corning; 30-002-CI) and […] G418 (Gibco; 101310350. Cells were subculture 2 times weekly by o.o5% Trypsin-EDTA treatment (Corning; 25-051-CI) and passaged to continue exponential growth phase for cell signaling assays. All cell cultures were maintained in cell culture incubators at 37° C. with 5% CO2.CEM-CCRF cells (ATCC CCL-119) were used in both the migration and calcium flux assays and were cultured in growth media consisting of RPMI 1640 (Corning; 10-040-CV) supplemented with 10% Fetal Bovine Serum (Corning; 35-011-CV), and 100 IU penicillin, […] streptomycin sulfate (Corning; 30-002-CI). Cells were maintained in suspension and sub-cultured twice weekly to maintain cell densities between 0.8×10^6 cells/mL and 2.5×10^6 cells/mL to maintain exponential growth phase. Cells were harvested for use in migration and calcium flux assays at 2.0×10^6 cells/mL to 2.5×10^6 cells/mL and resuspended in assay media to desired density for respective experiments.
Tango™ CXCR4-bla U2OS Cells were resuspended in assay media consisting of DMEM (Corning; Corning, NY) supplemented with 1% dialyzed Fetal bovine serum, 0.1 mM MEM Non-essential amino acids solution, 25 mM HEPES solution (Corning; Corning, NY), 1 mM Sodium Pyruvate and 100 IU penicillin, […] streptomycin sulfate (Corning; Corning, NY) at a density of 3.0×10^5 cells/ml. Assay media FreeStyle 293 expression Medium (Gibco; 12338018) was used for testing the thiadiazine scaffold CXCR4 agonists. Cells suspension was dispensed at 30 μl per well into assay plate and incubated overnight in a cell culture incubator at 37° C. with 5% CO2. […] Following overnight incubation, LiveBlazer FRET B/G Loading Kit (Invitrogen; K1095) working reagent was prepared according to supplier guidelines and 6 μl of solution was dispensed into each well; 8 μL of solution for testing the thiadiazine scaffold CXCR4 agonists. Assay plate was covered and incubated in a dark place for two hours and Fluorescence Intensity was measured using the BMG LABTECH CLARIOstar Plus (BMG LABTECH Inc., Cary, NC) according to the LiveBlazer FRET B/G Loading Kit excitation and emission measurement guidelines.
Results are expressed as mean±SD for 3 to 5 independent experiments. Statistically significant differences in gene expression between two groups were assessed by Student's T-test, ANOVA with an appropriate post hoc test was be used for multiple comparisons. P<0.05 was considered to be statistically significant. All concentration response curves were analyzed to determine EC50 and Emax using the following equation:
where Y is the normalized response (0-100%), X is the log of concentration of compound tested, and the Hill slope is equal to 1.0% and 100% activity are specific to each assay. […]

CXCR4 [3] = biological target: T1, CXCR4; assay: primary 1536 w β-arrestin recruitment assay (FRET, β-lactamase reporter) in U2OS cells overexpressing CXCR4; parameters: host or cells: U2OS; conditions: U2OS; read-out: CXCR4 b-arrestin Emax (%)
Protocol: In an effort to identify CXCR4 activators from the NIH Molecular Library Small Molecule Repository (MLSMR), a primary screening assay was developed to measure β-arrestin recruitment to the activated G-protein coupled receptor by Florescence Resonance Energy Transfer (FRET) in U2OS cells overexpressing the CXCR4 receptor engineered with a β-lactamase (bla) reporter system (Invitrogen cat #K1779). CXCR4-bla cells plated in 1536 w were stimulated in the presence of 10 uM compound concentration. […] Using this approach, 370,620 compounds from the NIH MLSMR were successfully screened and 303 hits were identified (hit rate=0.08%; Z′=0.83). […] These compounds were graded according to activity and structure resulting in 86 compounds that met criteria as potential CXCR4 agonists for further characterization.
Chemical stability, synthetic tractability, solubility and complete dose response and potency criteria led to the prioritization of the 5-aryl-2-cyclopropyl oxazole scaffold, represented by primary hit Compound 2 (Table 1). Early structure-activity relationship was established around the 5-aryl-2-cyclopropyl oxazole core with commercially available analogs with diverse substituents in the sulfonanilide ring of the scaffold. […] Keeping the 2-OMe substituent constant a small set of electron withdrawing and electron rich substituents at the 5-position of the anilide ring were screened (entries 16-19).

[4] = normalized to SDF-1, read-out: TANGO β-arrestin EC50
[5] = normalized to SDF-1α, read-out: ß-arrestin recruitment EC50
[6] = Homo sapiens, read-out: Migration CEM EC50

T1 sequence (P61073 whole entry): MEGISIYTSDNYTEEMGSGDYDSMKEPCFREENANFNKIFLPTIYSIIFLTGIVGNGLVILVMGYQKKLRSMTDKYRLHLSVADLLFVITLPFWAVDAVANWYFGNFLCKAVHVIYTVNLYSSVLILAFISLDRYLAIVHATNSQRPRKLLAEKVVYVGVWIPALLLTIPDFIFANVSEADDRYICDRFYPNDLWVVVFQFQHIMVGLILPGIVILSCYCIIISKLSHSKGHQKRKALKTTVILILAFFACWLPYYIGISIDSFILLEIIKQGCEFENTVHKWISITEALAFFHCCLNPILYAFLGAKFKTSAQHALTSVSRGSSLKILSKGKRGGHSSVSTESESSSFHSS

`CCOC(=O)C1CCN(c2ccc(C3=Nn4c(nnc4-c4ccccc4OCC)SC3)cc2)C1` (stereo not shown) [Entry 66] was tested. Which “Migration CEM Emax (%)” value [1] did it give?
The value was “B (35 < B < 70)”.

And the EC50 ([1]; read-out: Migration CEM EC50)?
The EC50 was < 5 µM.

And the “TANGO β-arrestin Emax (%)” value (CXCR4 [2]; normalized to SDF-1)?
Its value is “C (C ≤ 35)”.

And the EC50 (CXCR4 [2]; [4])?
Its EC50 is > 10 µM.

How did the EC50 ([1]; read-out: Migration CEM EC50) turn out when `CCOc1ccccc1-c1nnc2n1N=C(c1ccc(NC(C)=O)cc1)CS2` [Entry 30] was run?
The EC50 was > 10 µM.

And the “TANGO β-arrestin Emax (%)” value (CXCR4 [2]; normalized to SDF-1)?
The value was “C (C ≤ 35)”.

And the EC50 (CXCR4 [2]; [4])?
Its EC50 is < 5 µM.

And the EC50 (CXCR4 [2]; [5])?
Its EC50 is > 10 µM.

How did the Emax (CXCR4 [3]) turn out when `Cc1ccc(NS(=O)(=O)c2ccc(-c3cnc(C4CC4)o3)cc2)c(C)c1` [compound 12] was run?
Its Emax is 38%.

`CCOc1ccccc1-c1nnc2n1N=C(c1ccc(OC(F)F)cc1)CS2` [Entry 11] was tested. Which Emax ([1]; Homo sapiens) did it give?
The Emax was > 70%.

And the EC50 ([1]; Homo sapiens, read-out: Migration CEM EC50 (μM))?
Its EC50 is < 5 µM.

And the Emax (CXCR4 [2]; normalized to SDF-1)?
Its Emax is 35 to 70%.

What about the EC50 (CXCR4 [2]; [4]) of the same molecule?
Its EC50 is < 5 µM.

With `CCOc1ccccc1-c1nnc2n1N=C(c1ccc(C(=O)OC)cc1)CS2` [Entry 71] as the molecule, how does the Emax ([1]; Homo sapiens) read?
Its Emax is 35 to 70%.

And the EC50 [1, 6]?
The EC50 was < 5 µM.

What about the Emax (CXCR4 [2]; normalized to SDF-1) of the same molecule?
Its Emax is < 35%.

And the EC50 (CXCR4 [2]; [4])?
Its EC50 is < 5 µM.

What does the source list for `CCOc1ccccc1-c1nnc2n1N=C(c1ccc3c(c1)CCCN3)CS2` [Entry 29]?
Migration CEM Emax (%) [1]: C (C ≤ 35); EC50 ([1]; read-out: Migration CEM EC50): 5 to 50 µM; TANGO β-arrestin Emax (%) (CXCR4 [2]; normalized to SDF-1): A (A ≥ 70); EC50 (CXCR4 [2]; [4]): < 5 µM

How did the “Migration CEM Emax (%)” value [1] turn out when `C=CCOc1ccc(C2=Nn3c(nnc3-c3ccccc3OCC)SC2)cc1` [Entry 7] was run?
The value was “A (A ≥ 70)”.

And the EC50 [1, 6]?
Its EC50 is < 5 µM.

And the “TANGO β-arrestin Emax (%)” value (CXCR4 [2]; normalized to SDF-1)?
The value was “A (A ≥ 70)”.

What about the EC50 (CXCR4 [2]; [4]) of the same molecule?
Its EC50 is < 5 µM.

How did the EC50 [1, 6] turn out when `CCOc1ccccc1-c1nnc2n1N=C(c1ccc(NC(=O)c3cccc(C(=O)OC)c3)cc1)CS2` [Entry 36] was run?
Its EC50 is > 10 µM.

What about the EC50 (CXCR4 [2]; [4]) of the same molecule?
Its EC50 is > 10 µM.

With `COc1ccccc1-c1nnc2n1N=C(c1ccc(SC)cc1)CS2` [Entry 12] as the molecule, how does the Emax ([1]; Homo sapiens) read?
Its Emax is 35 to 70%.

What about the EC50 [1, 6] of the same molecule?
The EC50 was < 5 µM.

What about the Emax (CXCR4 [2]; normalized to SDF-1) of the same molecule?
Its Emax is > 70%.

And the EC50 (CXCR4 [2]; [4])?
The EC50 was < 5 µM.

Which “Migration CEM Emax (%)” value [1] does the source give for `C#CCCCNc1ccc(C2=Nn3c(nnc3-c3ccccc3OCC)SC2)cc1` [Entry 43] here?
Its value is “C (C ≤ 35)”.

What about the “TANGO β-arrestin Emax (%)” value (CXCR4 [2]; normalized to SDF-1) of the same molecule?
Its value is “C (C ≤ 35)”.

What about the EC50 (CXCR4 [2]; [4]) of the same molecule?
Its EC50 is < 5 µM.

How did the Emax ([1]; Homo sapiens) turn out when `CCOc1ccccc1-c1nnc2n1N=C(c1ccc(C(=O)O)cc1)CS2` [Entry 70] was run?
Its Emax is 35 to 70%.

What about the EC50 [1, 6] of the same molecule?
Its EC50 is < 5 µM.

What about the EC50 (CXCR4 [2]; [4]) of the same molecule?
Its EC50 is > 10 µM.

What does the source list for `CCOc1ccccc1-c1nnc2n1N=C(c1ccc(NC(=O)C(C)C)cc1)CS2` [Entry 31]?
EC50 ([1]; read-out: Migration CEM EC50): > 10 µM; EC50 (CXCR4 [2]; [4]): > 10 µM; EC50 (CXCR4 [2]; [5]): > 10 µM

Which results are given for `CCOc1ccccc1-c1nnc2n1N=C(c1ccc(NC3CCCCC3)cc1)CS2` [Entry 46]?
Migration CEM Emax (%) [1]: C (C ≤ 35); EC50 ([1]; read-out: Migration CEM EC50): < 5 µM; TANGO β-arrestin Emax (%) (CXCR4 [2]; normalized to SDF-1): C (C ≤ 35); EC50 (CXCR4 [2]; [4]): < 5 µM; EC50 (CXCR4 [2]; [5]): 0.77 µM; ß-arrestin recruitment Emax (%) (CXCR4 [2]; normalized to maximal SDF-1α response): 10%

How did the Emax ([1]; Homo sapiens) turn out when `CCOc1ccccc1-c1nnc2n1N=C(c1ccc(NC(=O)c3ccccc3)cc1)CS2` [Entry 34] was run?
The Emax was < 35%.

What about the EC50 [1, 6] of the same molecule?
The EC50 was < 5 µM.

What about the Emax (CXCR4 [2]; normalized to SDF-1) of the same molecule?
The Emax was 35 to 70%.

And the EC50 (CXCR4 [2]; [4])?
Its EC50 is < 5 µM.

For `CCOc1ccccc1-c1nnc2n1N=C(c1ccc(N3CCCCC3)cc1)CS2` [Entry 27], which EC50 [1, 6] is on record?
The EC50 was > 10 µM.

What about the EC50 (CXCR4 [2]; [4]) of the same molecule?
Its EC50 is > 10 µM.
